Measured values: US12304932B2, “PACAP stabilized peptide” (SENJU PHARMACEUTICAL CO., LTD., priority 2017, dated 2025)
Numbered stars: 1 amine (or outer) side, 2 acyl side, 3 side chain; on linkers, the order of the positions; unused ones are H or OH. Square brackets hold non-standard residues; d marks the D form. Peptide text beside a SMILES is read from it. * marks the point of attachment. Ala(1H-tetrazol-5-yl) = N[C@@H](Cc1nnn[nH]1)C(=O)O; X1 = O=C([C@H](CCc1nnn[nH]1)N[*:1])[*:2]; Nle = CCCC[C@H](N)C(=O)O; Ms = CS(=O)(=O)*

Test: Peptide stability tests 2 and 3: Tris buffer pH 7.0, stored at 60° C., HPLC conditions 2
Assay type: physicochemical
Details: Tris buffer pH 7.0, 60° C.; for survival rate after correction for water, 60° C., 1-week storage / survival rate after correction for water, 60° C., 2-week storage: 100 μM peptide; for survival rate after correction for water, 60° C., 2-week storage: 2 weeks
Method: (§1) Peptides 1, 2 and 6 to 9 synthesized in Example 2 were weighed and dissolved in Tris buffer (pH 7.0) to prepare 1.0 mM peptide solutions. The solutions were filtered with a Chromatdisk (product of Merck Millipore, Millex-GV, 0.22 μm). Each filtrate was diluted to 100 μM with Tris buffer (pH 7.0) and dispensed into a tube (Protein LoBind Tube by Eppendorf Co.). The prepared peptide solutions were incubated for 1 week or 2 weeks in a 60° C. thermostatic bath to obtain stored samples. A simultaneously prepared sample among the peptide solutions that was not stored was used as a standard sample (initial sample). The standard sample and the stored samples were stored at −30° C. until sample analysis.
Each stored sample was measured under the following HPLC analysis conditions 2, and the survival rate after correction for water for each peptide among the stored samples was calculated in the same manner as Example 3.
Column: XSelect CSH C18 by Waters Co., 5 μm, 4.6×250 mm
Guard column: XSelect CSH C18 by Waters. Co., 5 μm, 4.6×20 mm Guard Cartridge
Detection wavelength: 220 nm
Mobile phase A: 0.1% formic acid in water
Mobile phase B: 0.1% formic acid in acetonitrile
Measuring time: 20 minutes
Measuring sample injection rate: 50 μL
Column temperature: 40° C.
Mobile phase delivery: The mixing ratio of mobile phase A and mobile phase B was varied as shown in Table 5 for linear concentration gradient control.
as §1, with “Peptides 12 to 25, 27” for “Peptides 1, 2”, “and 28” for “and 6 to 9”, “for one” for “for 1”
The survival rate after correction for water for each peptide among the stored samples was calculated in the same manner as Example 4, and the results are shown in Table 7.
as §1, with “29” for “1, 2 and 6”, “34” for “9”, “for” for “for 1 week or”
The survival rate after correction for water for each peptide among the stored samples was calculated in the same manner as Example 4, and the results are shown in Table 7-2.

| SMILES | stability in aqueous solution, in words | survival rate after correction for water, 60° C., 1-week storage [%] | survival rate after correction for water, 60° C., 2-week storage [%] |
| --- | --- | --- | --- |
| CC[C@H](C)[C@H](NC(=O)CNC(=O)[C@H](Cc1nnn[nH]1)NC(=O)[C@H](CO)NC(=O)[C@@H](N)Cc1c[nH]cn1)C(=O)N[C@@H](Cc1ccccc1)C(=O)N[C@H](C(=O)N[C@@H](Cc1nnn[nH]1)C(=O)N[C@@H](CO)C(=O)N[C@@H](Cc1ccc(O)cc1)C(=O)N[C@@H](CO)C(=O)N[C@@H](CCCNC(=N)N)C(=O)N[C@@H](Cc1ccc(O)cc1)C(=O)N[C@@H](CCCNC(=N)N)C(=O)N[C@@H](CCCCN)C(=O)N[C@@H](CCC(N)=O)C(=O)N[C@@H](CC(C)C)C(=O)N[C@@H](C)C(=O)N[C@H](C(=O)N[C@@H](CCCCN)C(=O)N[C@@H](CCCCN)C(=O)N[C@@H](Cc1ccc(O)cc1)C(=O)N[C@@H](CC(C)C)C(=O)N[C@@H](C)C(=O)N[C@@H](C)C(=O)N[C@H](C(=O)N[C@@H](CC(C)C)C(N)=O)C(C)C)C(C)C)[C@@H](C)O [Peptide 7] (H-HS[Ala(1H-tetrazol-5-yl)]GIFT[Ala(1H-tetrazol-5-yl)]SYSRYRKQLAVKKYLAAVL-NH2) | drastically increased stability | 91.7 | 84.8 |
| CC[C@H](C)[C@H](NC(=O)CNC(=O)[C@H](Cc1nnn[nH]1)NC(=O)[C@H](CO)NC(=O)[C@H](Cc1c[nH]cn1)NS(C)(=O)=O)C(=O)N[C@@H](Cc1ccccc1)C(=O)N[C@H](C(=O)N[C@@H](Cc1nnn[nH]1)C(=O)N[C@@H](CO)C(=O)N[C@@H](Cc1ccc(O)cc1)C(=O)N[C@@H](CO)C(=O)N[C@@H](CCCNC(=N)N)C(=O)N[C@@H](Cc1ccc(O)cc1)C(=O)N[C@@H](CCCNC(=N)N)C(=O)N[C@@H](CCCCN)C(=O)N[C@@H](CCC(N)=O)C(=O)N[C@@H](CC(C)C)C(=O)N[C@@H](C)C(=O)N[C@H](C(=O)N[C@@H](CCCCN)C(=O)N[C@@H](CCCCN)C(=O)N[C@@H](Cc1ccc(O)cc1)C(=O)N[C@@H](CC(C)C)C(=O)N[C@@H](C)C(=O)N[C@@H](C)C(=O)N[C@H](C(=O)N[C@@H](CC(C)C)C(N)=O)C(C)C)C(C)C)[C@@H](C)O [Peptide 12] (Ms-HS[Ala(1H-tetrazol-5-yl)]GIFT[Ala(1H-tetrazol-5-yl)]SYSRYRKQLAVKKYLAAVL-NH2) | – | 97.0 | 93.6 |
| CC[C@H](C)[C@H](NC(=O)CNC(=O)[C@H](Cc1nnn[nH]1)NC(=O)[C@H](CO)NC(=O)[C@H](Cc1c[nH]cn1)NC(C)=O)C(=O)N[C@@H](Cc1ccccc1)C(=O)N[C@H](C(=O)N[C@@H](Cc1nnn[nH]1)C(=O)N[C@@H](CO)C(=O)N[C@@H](Cc1ccc(O)cc1)C(=O)N[C@@H](CO)C(=O)N[C@@H](CCCNC(=N)N)C(=O)N[C@@H](Cc1ccc(O)cc1)C(=O)N[C@@H](CCCNC(=N)N)C(=O)N[C@@H](CCCCN)C(=O)N[C@@H](CCc1nnn[nH]1)C(=O)N[C@@H](CC(C)C)C(=O)N[C@@H](C)C(=O)N[C@H](C(=O)N[C@@H](CCCCN)C(=O)N[C@@H](CCCCN)C(=O)N[C@@H](Cc1ccc(O)cc1)C(=O)N[C@@H](CC(C)C)C(=O)N[C@@H](C)C(=O)N[C@@H](C)C(=O)N[C@H](C(=O)N[C@@H](CC(C)C)C(N)=O)C(C)C)C(C)C)[C@@H](C)O [Peptide 13] (Ac-HS[Ala(1H-tetrazol-5-yl)]GIFT[Ala(1H-tetrazol-5-yl)]SYSRYRK[X1]LAVKKYLAAVL-NH2) | – | 97.4 | 95.4 |

Now from value to compound, other results behind:

| stability in aqueous solution, in words | SMILES | survival rate after correction for water, 60° C., 1-week storage [%] | survival rate after correction for water, 60° C., 2-week storage [%] |
| --- | --- | --- | --- |
| only equivalent stability | CC[C@H](C)[C@H](NC(=O)CNC(=O)[C@H](CC(=O)O)NC(=O)[C@H](CO)NC(=O)[C@H](Cc1cnc[nH]1)NC(C)=O)C(=O)N[C@@H](Cc1ccccc1)C(=O)N[C@H](C(=O)N[C@@H](CC(=O)O)C(=O)N[C@@H](CO)C(=O)N[C@@H](Cc1ccc(O)cc1)C(=O)N[C@@H](CO)C(=O)N[C@@H](CCCNC(=N)N)C(=O)N[C@@H](Cc1ccc(O)cc1)C(=O)N[C@@H](CCCNC(=N)N)C(=O)N[C@@H](CCCCN)C(=O)N[C@@H](CCC(N)=O)C(=O)N[C@@H](CCSC)C(=O)N[C@@H](C)C(=O)N[C@H](C(=O)N[C@@H](CCCCN)C(=O)N[C@@H](CCCCN)C(=O)N[C@@H](Cc1ccc(O)cc1)C(=O)N[C@@H](CC(C)C)C(=O)N[C@@H](C)C(=O)N[C@@H](C)C(=O)N[C@H](C(=O)N[C@@H](CC(C)C)C(N)=O)C(C)C)C(C)C)[C@@H](C)O [Peptide 2, reference compound] | 28.7 | 17.2 |
| drastically increased stability | CCCC[C@H](NC(=O)[C@H](CCC(N)=O)NC(=O)[C@H](CCCCN)NC(=O)[C@H](CCCNC(=N)N)NC(=O)[C@H](Cc1ccc(O)cc1)NC(=O)[C@H](CCCNC(=N)N)NC(=O)[C@H](CO)NC(=O)[C@H](Cc1ccc(O)cc1)NC(=O)[C@H](CO)NC(=O)[C@H](Cc1nnn[nH]1)NC(=O)[C@@H](NC(=O)[C@H](Cc1ccccc1)NC(=O)[C@@H](NC(=O)CNC(=O)[C@H](Cc1nnn[nH]1)NC(=O)[C@H](CO)NC(=O)[C@@H](N)Cc1c[nH]cn1)[C@@H](C)CC)[C@@H](C)O)C(=O)N[C@@H](C)C(=O)N[C@H](C(=O)N[C@@H](CCCCN)C(=O)N[C@@H](CCCCN)C(=O)N[C@@H](Cc1ccc(O)cc1)C(=O)N[C@@H](CC(C)C)C(=O)N[C@@H](C)C(=O)N[C@@H](C)C(=O)N[C@H](C(=O)N[C@@H](CC(C)C)C(N)=O)C(C)C)C(C)C [Peptide 6] (H-HS[Ala(1H-tetrazol-5-yl)]GIFT[Ala(1H-tetrazol-5-yl)]SYSRYRKQ[Nle]AVKKYLAAVL-NH2) | 91.3 | 82.4 |
| further increased stability | CCCC[C@H](NC(=O)[C@H](CCC(N)=O)NC(=O)[C@H](CCCCN)NC(=O)[C@H](CCCNC(=N)N)NC(=O)[C@H](Cc1ccc(O)cc1)NC(=O)[C@H](CCCNC(=N)N)NC(=O)[C@H](CO)NC(=O)[C@H](Cc1ccc(O)cc1)NC(=O)[C@H](CO)NC(=O)[C@H](Cc1nnn[nH]1)NC(=O)[C@@H](NC(=O)[C@H](Cc1ccccc1)NC(=O)[C@@H](NC(=O)CNC(=O)[C@H](Cc1nnn[nH]1)NC(=O)[C@H](CO)NC(=O)[C@H](Cc1c[nH]cn1)NC(C)=O)[C@@H](C)CC)[C@@H](C)O)C(=O)N[C@@H](C)C(=O)N[C@H](C(=O)N[C@@H](CCCCN)C(=O)N[C@@H](CCCCN)C(=O)N[C@@H](Cc1ccc(O)cc1)C(=O)N[C@@H](CC(C)C)C(=O)N[C@@H](C)C(=O)N[C@@H](C)C(=O)N[C@H](C(=O)N[C@@H](CC(C)C)C(N)=O)C(C)C)C(C)C [Peptide 8] (Ac-HS[Ala(1H-tetrazol-5-yl)]GIFT[Ala(1H-tetrazol-5-yl)]SYSRYRKQ[Nle]AVKKYLAAVL-NH2) | 98.1 | 92.9 |
| further increased stability | CC[C@H](C)[C@H](NC(=O)CNC(=O)[C@H](Cc1nnn[nH]1)NC(=O)[C@H](CO)NC(=O)[C@H](Cc1c[nH]cn1)NC(C)=O)C(=O)N[C@@H](Cc1ccccc1)C(=O)N[C@H](C(=O)N[C@@H](Cc1nnn[nH]1)C(=O)N[C@@H](CO)C(=O)N[C@@H](Cc1ccc(O)cc1)C(=O)N[C@@H](CO)C(=O)N[C@@H](CCCNC(=N)N)C(=O)N[C@@H](Cc1ccc(O)cc1)C(=O)N[C@@H](CCCNC(=N)N)C(=O)N[C@@H](CCCCN)C(=O)N[C@@H](CCC(N)=O)C(=O)N[C@@H](CC(C)C)C(=O)N[C@@H](C)C(=O)N[C@H](C(=O)N[C@@H](CCCCN)C(=O)N[C@@H](CCCCN)C(=O)N[C@@H](Cc1ccc(O)cc1)C(=O)N[C@@H](CC(C)C)C(=O)N[C@@H](C)C(=O)N[C@@H](C)C(=O)N[C@H](C(=O)N[C@@H](CC(C)C)C(N)=O)C(C)C)C(C)C)[C@@H](C)O [Peptide 9] (Ac-HS[Ala(1H-tetrazol-5-yl)]GIFT[Ala(1H-tetrazol-5-yl)]SYSRYRKQLAVKKYLAAVL-NH2) | 98.4 | 92.8 |
